Results published in US12180208B1, “Pyrazolo[1,5-c]pyrido[3,4-e]pyrimidines as CK2 inhibitors” (KING FAISAL UNIVERSITY, priority 2024, dated 2024).

Assays:
[1] = biological target: T1, recombinant human CK2 (holoenzyme) (Homo sapiens, UniProt P68400); assay: CK2 Kinase Assay (33P-ATP, filter plate); assay type: biochemical; details: final ATP concentration 15 μM, 10 min at 30° C.; read-out: protein kinase CK2 IC50
T1 construct: purchased Millipore
Experimental: CK2 Kinase Assay was conducted using the protocol as described in Pierre F. et al; J. Med. Chem. 2011, 54, 635-654. The tested compounds in aqueous solution were added at a volume of 10 μL to a reaction mixture comprising 10 μL of assay dilution buffer (ADB; 20 mM MOPS, pH 7.2, 25 mM β-glycerol phosphate, 5 mM EGTA, 1 mM sodium orthovanadate, and 1 mM dithiothreitol), 10 μL of substrate peptide (RRRDDDSDDD, dissolved in ADB at a concentration of 1 mM), 10 μL of recombinant human CK2 (RRββ-holoenzyme, 25 ng dissolved in ADB; Millipore). Reactions were initiated by the addition of 10 μL of ATP solution (90% 75 mMMgCl2, 75 μM ATP (final ATP concentration: 15 μM) dissolved in ADB; 10% [γ-33P] ATP (stock 1 mCi/100 μL; 3000 Ci/mmol (Perkin-Elmer) and maintained for 10 min at 30° C. The reactions were quenched with 100 μL of 0.75% phosphoric acid and then transferred to and filtered through a phosphor cellulose filter plate (Millipore). After washing each well five times with 0.75% phosphoric acid, the plate was dried under vacuum for 5 min and, following the addition of 15 μL of scintillation fluid to each well, the residual radioactivity was measured using a Wallac […] counter. The IC50 values were derived from eight concentrations of test inhibitors.

[2] = test system: HL60 (leukemia); assay: In vitro cytotoxic activity (MTT) assay, HL60; assay type: cell-based; details: Homo sapiens, HL-60, 96 hours exposure, read-out: Cytotoxicity activity IC50 (50% inhibition of cell proliferation)
Experimental: (§1) Compounds 1-16 were screened for their in vitro cytotoxic activity utilizing a 3-(4,5-dimethyl-thiazol-2-yl)-2,5-diphenyltetrazolium bromide (MTT) assay against selected cancer human cell lines consisting of PC3 (prostate), HCT116 (colon), A375 (melanoma), H1299 (lung), MIAPaCa-2 (pancreas), HL60 (leukemia), MCF7 (breast), MDA-MB-231 (breast) (T. Mosmann, J. Immunol. Meth., 1983, 65, 55-63). The cells were cultured at 37° C. in RMPI1640 medium supplemented with 10% fetal bovine serum, 50 IU/mL penicillin, and 50 μg/mL streptomycin in a 5% CO2 incubator. All cells were sub-cultured 3 times/week by trypsinisation. Viable cells were seeded and allowed to adhere for 12 hours before a test drug was added in 96-well plates at an initial density of 1.0×10^5 cells/mL. Tumor cell lines were separately exposed to various concentrations of the tested compounds followed by incubation at a temperature of 37° C. during 96 hours inside a medium of fresh RMPI 1640. Cells were subsequently incubated at 37° C. using MTT at 0.5 mg/mL during 4 hours. After removal of supernatant, formazan crystals were dissolved in isopropanol and the optical density was measured at 570 nm. CX-4945 was used as a positive control.

[3] = test system: H1299 (lung); assay: In vitro cytotoxic activity (MTT) assay, H1299; assay type: cell-based; details: Homo sapiens, NCI-H1299, 96 hours exposure, read-out: Cytotoxicity activity IC50 (50% inhibition of cell proliferation)
Experimental: as §1

[4] = test system: MDA-MB-231 (breast); assay: In vitro cytotoxic activity (MTT) assay, MDA-MB-231; assay type: cell-based; details: Homo sapiens, 96 hours exposure, read-out: Cytotoxicity activity IC50 (50% inhibition of cell proliferation)
Experimental: as §1

[5] = test system: MIAPaCa-2 (pancreas); assay: In vitro cytotoxic activity (MTT) assay, MIAPaCa-2; assay type: cell-based; details: Homo sapiens, MIA PaCa-2, 96 hours exposure, read-out: Cytotoxicity activity IC50 (50% inhibition of cell proliferation)
Experimental: as §1

[6] = test system: MCF7 (breast); assay: In vitro cytotoxic activity (MTT) assay, MCF7; assay type: cell-based; details: Homo sapiens, 96 hours exposure, read-out: Cytotoxicity activity IC50 (50% inhibition of cell proliferation)
Experimental: as §1

[7] = test system: A375 (melanoma); assay: In vitro cytotoxic activity (MTT) assay, A375; assay type: cell-based; details: Homo sapiens, A-375, 96 hours exposure, read-out: Cytotoxicity activity IC50 (50% inhibition of cell proliferation)
Experimental: as §1

[8] = test system: PC3 (prostate); assay: In vitro cytotoxic activity (MTT) assay, PC3; assay type: cell-based; details: Homo sapiens, 96 hours exposure, read-out: Cytotoxicity activity IC50 (50% inhibition of cell proliferation)
Experimental: as §1

[9] = test system: HCT116 (colon); assay: In vitro cytotoxic activity (MTT) assay, HCT116; assay type: cell-based; details: Homo sapiens, HCT-116, 96 hours exposure, read-out: Cytotoxicity activity IC50 (50% inhibition of cell proliferation)
Experimental: as §1

T1 sequence (P68400 whole entry): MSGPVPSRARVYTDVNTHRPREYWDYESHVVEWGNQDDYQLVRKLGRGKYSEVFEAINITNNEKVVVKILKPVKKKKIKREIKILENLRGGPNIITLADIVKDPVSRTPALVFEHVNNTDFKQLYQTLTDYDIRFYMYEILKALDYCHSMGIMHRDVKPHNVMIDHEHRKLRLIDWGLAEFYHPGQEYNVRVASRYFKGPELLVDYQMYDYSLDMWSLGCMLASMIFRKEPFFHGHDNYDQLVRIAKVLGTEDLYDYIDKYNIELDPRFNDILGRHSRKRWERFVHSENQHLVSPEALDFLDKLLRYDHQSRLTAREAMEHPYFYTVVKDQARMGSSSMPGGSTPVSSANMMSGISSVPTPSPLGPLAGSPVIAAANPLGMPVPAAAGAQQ
T1 sequence (P67870 whole entry partner): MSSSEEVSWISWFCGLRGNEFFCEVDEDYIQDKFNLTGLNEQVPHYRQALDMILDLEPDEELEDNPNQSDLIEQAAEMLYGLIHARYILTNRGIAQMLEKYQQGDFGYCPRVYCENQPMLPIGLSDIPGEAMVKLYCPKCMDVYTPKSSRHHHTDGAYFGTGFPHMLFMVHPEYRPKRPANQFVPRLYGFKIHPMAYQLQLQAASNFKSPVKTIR

O=C(O)c1cc2c3cnccc3nc(Nc3cccc(Cl)c3)n2n1 [Compound 1, 6-((3-chlorophenyl)amino)pyrazolo[1,5-c]pyrido[3,4-e]pyrimidine-9-carboxylic Acid]
IC50 [1]: 0.055 µM | IC50 [2]: 5.1 µM | IC50 [3]: 2.5 µM | IC50 [4]: 4.9 µM | IC50 [5]: 1.7 µM | IC50 [6]: 5.6 µM | IC50 [7]: 4.2 µM | IC50 [8]: 2.3 µM | IC50 [9]: 3.1 µM
